The results in this text go back to US7612054B2, “Dibenzo[b,f]oxepine-10-carboxamides and pharmaceutical uses thereof” (Novartis AG, priority 2003, dated 2009).

In the case of `CCCCNC(=O)C(C)CC(O)C(Cc1cc(F)cc(F)c1)NC(=O)C1=Cc2ccccc2Oc2ccccc21` (stereo not shown) [Example 16, Dibenzo[b,f]oxepine-10-carboxylic acid [4-butylcarbamoyl-1-(3,5-difluorobenzyl)-2-hydroxy-pentyl]-amide], the melting point (in general, the temperature, or range, at which the solid turns liquid) was in the range of 174 to 176 °C.
The same measure for `CCCCNC(=O)C(C)CC(O)C(Cc1ccccc1)NC(=O)C1=Cc2ccccc2Oc2cc(Cl)ccc21` (stereo not shown) [Example 9, 7-Chloro-dibenzo[b,f]oxepine-10-carboxylic acid (1-benzyl-4-butylcarbamoyl-2-hydroxy-pentyl)-amide]: 153 to 155 °C; for `CCCCNC(=O)C(C)CC(O)C(Cc1ccccc1)NC(=O)c1cc2ccccc2c(=O)c2ccccc12` (stereo not shown) [Example 11, 5-Oxo-5H-dibenzo[a,d]cycloheptene-10-carboxylic acid (1-benzyl-4-butylcarbamoyl-2-hydroxy-pentyl)-amide]: 229 to 230 °C; for `CCCCNC(=O)C(C)CC(O)C(Cc1cccc(F)c1)NC(=O)C1=Cc2ccccc2Oc2ccccc21` (stereo not shown) [Example 17, Dibenzo[b,f]oxepine-10-carboxylic acid [4-butylcarbamoyl-1-(3-fluorobenzyl)-2-hydroxy-pentyl]-amide]: 204 to 207 °C.
